{
  "source": "paper PMC8379256",
  "about": "“A xanthene derivative, DS20060511, attenuates glucose intolerance by inducing skeletal muscle-specific GLUT4 translocation in mice” (Communications Biology, 2021)",
  "key": {"[1]": {"test_system": "isolated skeletal muscles", "assay": "2-DG uptake with 100 nM insulin in isolated muscles from C57BL/6 mice", "set-up": "species or system mouse", "conditions": "for 2DOG Trn / IC 2DOG / Raio (2-DG uptake relative to untreated control): isolated muscles, individual muscles #1-3; for 2DOG Trn / IC 2DOG: 2DG 1 mM, incubation 10 min", "experimental": "Arrowheads indicate the characteristic ruffled structure of the polymerized actin and actin-associated surface GLUT4. d GLUT4 translocation activity of 30 μM DS20060511 or 100 nM insulin in the presence of the actin polymerization inhibitor, Latrunculin B, at the indicated concentrations. Values shown are means ± SEM, n = 3. **P < 0.01 vs. 0 nM Latrunculin B by one-way ANOVA followed by Dunnett’s test. e Concentration-dependent insulin-stimulated GLUT4 translocation in L6-GLUT4myc myotubes with or without 30 μM DS20060511 (n = 3). f Concentration-dependent DS20060511-stimulated 2-DG uptake with 100 nM insulin in isolated muscles from C57BL/6 mice (n = 3). Values shown are means ± SEM. ***P < 0.001 by one-way ANOVA followed by Tukey’s test. g Blood glucose levels during ITT in STZ-treated C57BL/6 mice (n = 6–7). Vehicle or indicated dose of DS20060511 was given orally at the same time as 0.1 U kg^−1 insulin injection intraperitoneally. Values shown are means ± SEM. *P < 0.05 vs. vehicle by one-way ANOVA followed by Dunnett’s test. c Scale bar in all panels, 5 μm. Uncropped blots for a and b can be found in Supplementary Fig. 6.\n(§1) The soleus or EDL muscle was removed from anesthetized mice (isoflurane anesthesia) that had been denied access to food overnight, and incubated with oxygenated (95% O2/5% CO2) Krebs-Henseleit Bicarbonate (KHB) buffer (118.1 mM NaCl, 4.7 mM KCl, 1.1 mM KH2PO4, 1.2 mM MgSO4, 2.5 mM CaCl2, and 25 mM NaHCO3, pH7.4) in the presence of 11.1 mM glucose at 37 °C. The muscle specimens were then treated with the indicated concentrations of the compounds in KHB buffer containing 11.1 mM glucose and 8 mM mannitol for 10 min at 37 °C. Thereafter, the muscles were rinsed with KHB buffer containing 8 mM mannitol and the compounds for 5 min at 37 °C. Lastly, the muscles were treated with the compounds in KHB buffer containing 1 mM 2-DG (with 0.3 μCi mL^−1 [^3H]-2-DG) and 8 mM mannitol (with 0.03 μCi mL^−1 [^14C]-mannitol) for 10 min at 37 °C. After the muscle specimens were washed, they were lysed with 1 N NaOH and neutralized with 1 N HCl. The ^14C- and ^3H-specific activities were counted with a liquid scintillation counter. The specific uptake of 2-DG was calculated by subtracting the nonspecific uptake of mannitol from the total 2-DG uptake. To investigate the effects of muscle contraction, muscle contraction was induced by electrical stimulation with 5 Hz (1 ms pulse duration, 100 V) for 10 min (SEN-5201, Nihon Koden, Tokyo, Japan)."}, "[2]": {"test_system": "isolated skeletal muscle", "assay": "2-DG uptake in muscles isolated from NC-fed and HFD-fed mice", "set-up": "species or system mouse", "conditions": "for Raio: 2-DG uptake in isolated muscles; for Raio / 2DOG Trn / IC 2DOG: individual muscles; for 2DOG Trn / IC 2DOG: isolated muscles", "experimental": "Fig. 8 Acute and chronic DS20060511 treatment improves glucose intolerance in HFD-fed and db/db mice. a Blood glucose and plasma insulin levels during an oral GTT in normal-chow (NC)- and high-fat diet (HFD)-fed mice (n = 5). Vehicle or DS20060511 (30 mg kg^−1) was given orally 15 min before the oral glucose administration (1.5 g kg^−1). Values shown are means ± SEM. *P < 0.05, **P < 0.01, ***P < 0.001 vs. the HFD vehicle by the t-test. b Effects of 10 μM DS20060511 and 100 nM insulin on 2-DG uptake in muscles isolated from NC-fed (n = 6) and HFD-fed (n = 5) mice. Values shown are means ± SEM. **P < 0.01 by one-way ANOVA followed by Tukey’s test. c, d Changes in the blood glucose levels and AUC on day 1 and day 28 during refeeding (n = 6) in db/db mice treated chronically with DS20060511 (10 mg kg^−1 day^−1). Values shown are means ± SEM. *P < 0.05, **P < 0.01, ***P < 0.001 vs. vehicle by the t-test. e Change of the HbA1c levels in the db/db (n = 6) mice at 4 weeks. Values shown are means ± SEM. *P < 0.05 vs. vehicle by the t-test.\nC57BL/6 and db/db mice were purchased from CLEA Japan, Tokyo, Japan. GLUT4- knockout mice were generated at RIKEN BioResource Center, Tsukuba, Japan, according to a previously described method. eNOS-knockout mice were kindly provided by Dr. Masato Tsutsui[41],[42]. The mice were group-housed under controlled illumination (12:12 h light-dark cycle) and temperature (23 ± 2 °C) conditions and given free access to normal chow and water, unless otherwise specified. The HFD-fed obese mice were prepared by feeding C57BL/6 mice a HFD for at least 8 weeks from 6 weeks of age. […] Male mice were used for all the experiments in this study. The animal care and experimental procedures used in the study were approved by The University of Tokyo Animal Care Committee (Approval number: 27-3), and the study was carried out in accordance with the Animal Experimentation Guidelines of Daiichi Sankyo Co., Ltd (Approved number: 20000411).\nas §1"}, "[3]": {"conditions": "insulin 100 nM alone (DS20060511 0 μM)"}, "[4]": {"conditions": "HFD, DS20060511 0 μM, Insulin 100 nM"}, "[5]": {"conditions": "NC, DS20060511 0 μM, Insulin 100 nM"}, "[6]": {"conditions": "DS20060511 1 μM + insulin 100 nM"}, "[7]": {"conditions": "DS20060511 10 μM + insulin 100 nM"}, "[8]": {"conditions": "HFD, DS20060511 10 μM plus Insulin 100 nM"}},
  "note": "“And” between values parts separate entries of the source, which are not always exact repeats. Identical values can stand only once.",
  "data": [
    {"compound": "Insulin: Insulin (Humulin, Eli Lilly) in the in vivo experiments; Insulin solution human (I9278, Sigma–Aldrich) in the in vitro experiments", "values": [
      {"measurement": "2DOG Trn", "setting": "[1]; [3]", "result": "573 nmol/ml and 57.3 µM/min and 622 nmol/ml and 62.2 µM/min and 629 nmol/ml and 62.9 µM/min"},
      {"measurement": "IC 2DOG", "setting": "[1]; [3]", "result": "376 nmol/g and 331 nmol/g and 410 nmol/g"},
      {"measurement": "Raio (2-DG uptake relative to untreated control)", "setting": "[1]; [3]", "result": "1.65 and 1.79 and 1.82"},
      {"measurement": "Raio", "setting": "[2]; [4]", "result": "1.28 and 1.46 and 1.65 and 1.16 and 0.85"},
      {"measurement": "Raio", "setting": "[2]; [5]", "result": "2.15 and 2.48 and 1.82 and 1.55 and 1.68 and 2.28"},
      {"measurement": "2DOG Trn", "setting": "[2]; HFD, DS20060511 0 μM, Insulin 100 nM, incubation time 10 min", "result": "25.5 µM/min and 29.1 µM/min and 32.9 µM/min and 23.1 µM/min and 14.4 µM/min"},
      {"measurement": "2DOG Trn", "setting": "[2]; [4]", "result": "255 nmol/mL and 291 nmol/mL and 329 nmol/mL and 324 nmol/mL and 259 nmol/mL"},
      {"measurement": "IC 2DOG", "setting": "[2]; [4]", "result": "163 nmol/g and 186 nmol/g and 216 nmol/g and 214 nmol/g and 174 nmol/g"},
      {"measurement": "2DOG Trn", "setting": "[2]; NC, DS20060511 0 μM, Insulin 100 nM, incubation time 10 min", "result": "27.4 µM/min and 29.7 µM/min and 40.3 µM/min and 38.9 µM/min and 44.9 µM/min and 32.9 µM/min"},
      {"measurement": "2DOG Trn", "setting": "[2]; [5]", "result": "274 nmol/mL and 297 nmol/mL and 403 nmol/mL and 389 nmol/mL and 449 nmol/mL and 329 nmol/mL"},
      {"measurement": "IC 2DOG", "setting": "[2]; [5]", "result": "192 nmol/g and 210 nmol/g and 264 nmol/g and 259 nmol/g and 303 nmol/g and 223 nmol/g"}
    ]},
    {"compound": "COc1ccc2c(C)c(C(=O)O)ccc2c1C1C2=C(CC(C)(C)CC2=O)OC2=C1C(=O)CC(C)(C)C2", "note": "[DS20060511]", "values": [
      {"measurement": "2-DG uptake induced by insulin, concomitant DS20060511", "setting": "[1]; 100 nM insulin, isolated skeletal muscles, Fig. 4f", "result": "additively increased"},
      {"measurement": "2DOG Trn", "setting": "[1]; [6]", "result": "935 nmol/ml and 93.5 µM/min and 1062 nmol/ml and 106.2 µM/min and 1054 nmol/ml and 105.4 µM/min"},
      {"measurement": "IC 2DOG", "setting": "[1]; [6]", "result": "559 nmol/g and 682 nmol/g and 640 nmol/g"},
      {"measurement": "Raio (2-DG uptake relative to untreated control)", "setting": "[1]; [6]", "result": "2.70 and 3.07 and 3.04"},
      {"measurement": "2DOG Trn", "setting": "[1]; [7]", "result": "1281 nmol/ml and 128.1 µM/min and 1209 nmol/ml and 120.9 µM/min and 1137 nmol/ml and 113.7 µM/min"},
      {"measurement": "IC 2DOG", "setting": "[1]; [7]", "result": "656 nmol/g and 556 nmol/g and 565 nmol/g"},
      {"measurement": "Raio", "setting": "[2]; [8]", "result": "2.30 and 2.20 and 2.00 and 1.46 and 1.88"},
      {"measurement": "suppression of insulin-induced 2-DG uptake in isolated skeletal muscle", "setting": "[2]; HFD-fed mice, 10 μM DS20060511, 100 nM insulin", "result": "completely restored"},
      {"measurement": "2DOG Trn", "setting": "[2]; HFD, DS20060511 10 μM plus Insulin 100 nM, incubation time 10 min", "result": "45.7 µM/min and 43.8 µM/min and 39.8 µM/min and 37.4 µM/min"},
      {"measurement": "2DOG Trn", "setting": "[2]; [8]", "result": "457 nmol/mL and 438 nmol/mL and 436 nmol/mL and 374 nmol/mL"},
      {"measurement": "IC 2DOG", "setting": "[2]; [8]", "result": "292 nmol/g and 276 nmol/g and 268 nmol/g and 283 nmol/g and 257 nmol/g"}
    ]}
  ]
}
